In patent publication US20140094424A1, “MICROBICIDAL COMPOSITIONS AND METHODS OF PRODUCTION USE THEREOF” (priority 2011, published 2014):

Key:
Gram positive rods (S) = experiment: MBC (minimum bactericidal concentration) test in Wash NEXT reagent; format: cell-based
Description: (§1) The stock organisms were thawed and subbed prior to beginning the MBC test. Molds were subbed to SDA plates one week before, and the bacteria were subbed to TAT agar plates 24 hours prior to the start of the test. All plates were incubated at 32 degrees C.
(§2) Each bacterial organism was inoculated into 40 ml sterile saline in a centrifuge tube to create a density of MacFarland #1. Two serial dilutions of 1:100 were then made, resulting in 10^−2 and 10^−4 concentrations. Each dilution was vortexed before it was sampled, and sterile Eppendorf pipette tips were used to make each transfer. The 10^−4 dilution was spiral plated to yield the initial inoculum concentration.
(§3) MBC trays were set up with the prepared test reagent. Using a Matrix pipettor, 100 μl aliquots of reagent were distributed into the wells, diluting the amount of preservative from 100% to 10% increments, using unpreserved reagent as the diluent. In one row, 100% non-preserved reagent acted as a positive control and served as a benchmark for a full mat of growth. In well #12H, 100 μl unpreserved reagent was pipetted, and this well was not inoculated with organisms, as it served as the negative control. Once all of the trays were prepared, the prepared bacteria/mold suspensions were poured into the MBC inoculating trays. These were placed onto the reagent trays, and 0.01 ml inoculum was introduced into the 100 μl of reagent in each well.
(§4) This was done by dipping a sterile cotton swab into each well, and absorbing all of the liquid in the well. The swab was rolled onto a TAT agar plate ensuring that the entire swab touches the agar. Plates ware incubated at 32 degrees C. for 48 hours to 7 days, depending on the organism. Observations for growth were performed by a scoring matrix using + for a full mat, +/− for some growth, a numerical value for an actual colony count, and—for no growth.
(§5) Below are tables that contain the data obtained in Example 1. The MBC test is scored by (+) indicating a full grown mat of organisms, equivalent to the organisms in the unpreserved reagent. (+/−) indicates there is some kill evident disturbing that mat or bringing the quantities down to an almost countable level. An actual number is the actual number of colonies growing at that concentration of preservative. (−) indicates no growth found. The MBC trays were stored at room temperature for the entire test.
(§6) The materials and methods and analysis of the MBC test were the same as in Example 1.

Pseudomonas putida (K) = experiment: as above; format: cell-based
Description: as §1, §2, §3, §4, §5, §6

Cc1cc(NS(=O)(=O)c2ccc(N)cc2)no1 [Sulfamethoxazole, sulfamethoxazole]
MBC test growth score (Gram positive rods (S); 10% preservative, 8 hour): + | MBC test growth score (Gram positive rods (S); 10% preservative, 24 hour): + | MBC test growth score (Gram positive rods (S); 10% preservative, 48 hour): + | MBC test growth score (Gram positive rods (S); 10% preservative, 72 hour): + | MBC test growth score (Gram positive rods (S); 10% preservative, 7 day): + | MBC test growth score (Gram positive rods (S); 10% preservative, 14 day): + | MBC test growth score (Gram positive rods (S); 20% preservative, 8 hour): + | MBC test growth score (Gram positive rods (S); 20% preservative, 24 hour): + | MBC test growth score (Gram positive rods (S); 20% preservative, 48 hour): + | MBC test growth score (Gram positive rods (S); 20% preservative, 72 hour): + | MBC test growth score (Gram positive rods (S); 20% preservative, 7 day): + | MBC test growth score (Gram positive rods (S); 20% preservative, 14 day): + | MBC test growth score (Gram positive rods (S); 30% preservative, 8 hour): + | MBC test growth score (Gram positive rods (S); 30% preservative, 24 hour): + | MBC test growth score (Gram positive rods (S); 30% preservative, 48 hour): + | MBC test growth score (Gram positive rods (S); 30% preservative, 72 hour): + | MBC test growth score (Gram positive rods (S); 30% preservative, 7 day): + | MBC test growth score (Gram positive rods (S); 30% preservative, 14 day): + | MBC test growth score (Gram positive rods (S); 40% preservative, 8 hour): + | MBC test growth score (Gram positive rods (S); 40% preservative, 24 hour): + | MBC test growth score (Gram positive rods (S); 40% preservative, 48 hour): + | MBC test growth score (Gram positive rods (S); 40% preservative, 72 hour): + | MBC test growth score (Gram positive rods (S); 40% preservative, 7 day): + | MBC test growth score (Gram positive rods (S); 40% preservative, 14 day): + | MBC test growth score (Gram positive rods (S); 50% preservative, 8 hour): + | MBC test growth score (Gram positive rods (S); 50% preservative, 24 hour): + | MBC test growth score (Gram positive rods (S); 50% preservative, 48 hour): + | MBC test growth score (Gram positive rods (S); 50% preservative, 72 hour): + | MBC test growth score (Gram positive rods (S); 50% preservative, 7 day): + | MBC test growth score (Gram positive rods (S); 50% preservative, 14 day): + | MBC test growth score (Gram positive rods (S); 60% preservative, 8 hour): + | MBC test growth score (Gram positive rods (S); 60% preservative, 24 hour): + | MBC test growth score (Gram positive rods (S); 60% preservative, 48 hour): + | MBC test growth score (Gram positive rods (S); 60% preservative, 72 hour): + | MBC test growth score (Gram positive rods (S); 60% preservative, 7 day): + | MBC test growth score (Gram positive rods (S); 60% preservative, 14 day): + | MBC test growth score (Gram positive rods (S); 70% preservative, 8 hour): + | MBC test growth score (Gram positive rods (S); 70% preservative, 24 hour): + | MBC test growth score (Gram positive rods (S); 70% preservative, 48 hour): + | MBC test growth score (Gram positive rods (S); 70% preservative, 72 hour): + | MBC test growth score (Gram positive rods (S); 70% preservative, 7 day): + | MBC test growth score (Gram positive rods (S); 70% preservative, 14 day): + | MBC test growth score (Gram positive rods (S); 80% preservative, 8 hour): + | MBC test growth score (Gram positive rods (S); 80% preservative, 24 hour): + | MBC test growth score (Gram positive rods (S); 80% preservative, 48 hour): + | MBC test growth score (Gram positive rods (S); 80% preservative, 72 hour): + | MBC test growth score (Gram positive rods (S); 80% preservative, 7 day): + | MBC test growth score (Gram positive rods (S); 80% preservative, 14 day): + | MBC test growth score (Gram positive rods (S); 90% preservative, 8 hour): + | MBC test growth score (Gram positive rods (S); 90% preservative, 24 hour): + | MBC test growth score (Gram positive rods (S); 90% preservative, 48 hour): + | MBC test growth score (Gram positive rods (S); 90% preservative, 72 hour): + | MBC test growth score (Gram positive rods (S); 90% preservative, 7 day): + | MBC test growth score (Gram positive rods (S); 90% preservative, 14 day): + | MBC test growth score (Gram positive rods (S); 100% preservative, 8 hour): + | MBC test growth score (Gram positive rods (S); 100% preservative, 24 hour): + | MBC test growth score (Gram positive rods (S); 100% preservative, 48 hour): + | MBC test growth score (Gram positive rods (S); 100% preservative, 72 hour): + | MBC test growth score (Gram positive rods (S); 100% preservative, 7 day): + | MBC test growth score (Gram positive rods (S); 100% preservative, 14 day): + | MBC test growth score (Pseudomonas putida (K); 10% preservative, 8 hour): + | MBC test growth score (Pseudomonas putida (K); 10% preservative, 24 hour): 2 | MBC test growth score (Pseudomonas putida (K); 10% preservative, 48 hour): +/− | MBC test growth score (Pseudomonas putida (K); 10% preservative, 72 hour): +/− | MBC test growth score (Pseudomonas putida (K); 20% preservative, 8 hour): + | MBC test growth score (Pseudomonas putida (K); 20% preservative, 24 hour): +/− | MBC test growth score (Pseudomonas putida (K); 20% preservative, 48 hour): +/− | MBC test growth score (Pseudomonas putida (K); 20% preservative, 72 hour): − | MBC test growth score (Pseudomonas putida (K); 30% preservative, 8 hour): + | MBC test growth score (Pseudomonas putida (K); 30% preservative, 24 hour): +/− | MBC test growth score (Pseudomonas putida (K); 30% preservative, 48 hour): 22 | MBC test growth score (Pseudomonas putida (K); 30% preservative, 72 hour): − | MBC test growth score (Pseudomonas putida (K); 40% preservative, 8 hour): + | MBC test growth score (Pseudomonas putida (K); 40% preservative, 24 hour): +/− | MBC test growth score (Pseudomonas putida (K); 40% preservative, 48 hour): 20 | MBC test growth score (Pseudomonas putida (K); 40% preservative, 72 hour): − | MBC test growth score (Pseudomonas putida (K); 50% preservative, 8 hour): + | MBC test growth score (Pseudomonas putida (K); 50% preservative, 24 hour): +/− | MBC test growth score (Pseudomonas putida (K); 50% preservative, 72 hour): − | MBC test growth score (Pseudomonas putida (K); 60% preservative, 8 hour): + | MBC test growth score (Pseudomonas putida (K); 60% preservative, 24 hour): +/− | MBC test growth score (Pseudomonas putida (K); 60% preservative, 48 hour): 18 | MBC test growth score (Pseudomonas putida (K); 60% preservative, 72 hour): − | MBC test growth score (Pseudomonas putida (K); 70% preservative, 8 hour): + | MBC test growth score (Pseudomonas putida (K); 70% preservative, 24 hour): + | MBC test growth score (Pseudomonas putida (K); 70% preservative, 48 hour): − | MBC test growth score (Pseudomonas putida (K); 70% preservative, 72 hour): − | MBC test growth score (Pseudomonas putida (K); 80% preservative, 8 hour): + | MBC test growth score (Pseudomonas putida (K); 80% preservative, 24 hour): + | MBC test growth score (Pseudomonas putida (K); 80% preservative, 48 hour): − | MBC test growth score (Pseudomonas putida (K); 80% preservative, 72 hour): − | MBC test growth score (Pseudomonas putida (K); 90% preservative, 8 hour): + | MBC test growth score (Pseudomonas putida (K); 90% preservative, 24 hour): + | MBC test growth score (Pseudomonas putida (K); 90% preservative, 48 hour): − | MBC test growth score (Pseudomonas putida (K); 90% preservative, 72 hour): − | MBC test growth score (Pseudomonas putida (K); 100% preservative, 8 hour): + | MBC test growth score (Pseudomonas putida (K); 100% preservative, 24 hour): + | MBC test growth score (Pseudomonas putida (K); 100% preservative, 48 hour): − | MBC test growth score (Pseudomonas putida (K); 100% preservative, 72 hour): −
